Measurements taken from patent US20230277494A1, “TRANS-CROCETIN COMPOSITIONS AND TREATMENT REGIMENS” (priority 2020, published 2023).

What was measured:
[1] = human, in vivo; cited from earlier work
[2] = mouse, in vivo, iv
[3] = Phase 2 clinical study of liposomal trans-crocetin, pharmacokinetics; settings: human, in vivo
Source text: A phase 2 clinical study was initiated to assess the safety and efficacy of liposomal trans-crocetin in patients with acute respiratory distress syndrome due to COVID-19 disease. This was an open label phase II study of treatment with liposomal trans-crocetin in patients who experience severe acute respiratory distress syndrome (ARDS) and were receiving artificial respiratory support due to COVID-19. The purpose of this study was to evaluate the improvement in PaO2/FiO2 by more than 25% in two cohorts of patients treated liposomal trans-crocetin. In the first cohort, patients received trans-crocetin at a dose of 0.25 mg/kg administered as intravenous (IV) bolus every 3 hours. The second cohort was treated by a liposomal formulation containing trans-crocetin. […] Pharmacokinetic assessment was carried out to identify an optimal dose and schedule. […] Secondary outcome measures included (1) proportion of patients with a PaO2/FiO2 ratio above 200 mm Hg (Time Frame: 24, 48 and 72 hours), and (2) all cause mortality (Time Frame: 28 days).
The primary purpose of this study was to determine a safe dosing regimen of liposomal trans-crocetin and to assess preliminary efficacy as measured by improvement in PaO2/FiO2 by more than 25% in patients treated with liposome encapsulated trans-crocetin, as well as safety and the pharmacokinetic profile of liposome encapsulated trans-crocetin. […]

[4] = diffusion of oxygen in plasma, FIG. 12; cited from earlier work

Structure (SMILES) | safety in clinical trials [1] | Cmax [2] [µg/mL] | AUC and Cmax across a wide range of body weights [3] | improvement in diffusion capacity [4] [%]
CC(/C=C/C=C(\C)C(=O)[O-])=C\C=C\C=C(C)\C=C\C=C(/C)C(=O)[O-].[Na+].[Na+] [STC free drug, sodium trans-crocetinate] | no safety concerns | 360 |  | 
CC(/C=C/C=C(\C)C(=O)O)=C\C=C\C=C(C)\C=C\C=C(/C)C(=O)O [trans-crocetin] |  |  | stable levels | 30
